A word on the IC50: it is the concentration that gives 50% inhibition. A low value points to greater potency in that assay.

This note sets out measurements from patent publication US8012983B2, “Substituted triazolopyrazines useful for the treatment of degenerative and inflammatory diseases” (Galapagos NV, priority 2008, dated 2011).

Structures are written as SMILES. Bounds are passed on as bounds.

The test system of the assay is MMP13 expression in SW1353 chondrosarcoma cell line. Put plainly: MMP13 assay: IL-1/OSM-driven MMP13 expression in SW1353 cells (MMP13 ELISA). Format: cell-based. The following applies: Homo sapiens, IL-1β and OSM, 48 hr. As for the experimental part: The protocol of the MMP13 ELISA is described in section 4.1, then testing of compounds on release of IL-1/OSM-driven MMP13 expression in SW1353 chondrosarcoma cell line is described in section 4.2.
A 384 well format ELISA for measurement of MMP13 was developed. Various primary antibodies were tested, as well as various ELISA protocols. The following protocol is developed and validated to measure MMP13 levels in supernatant of cell cultures in 384 well plates.
Black maxisorb 384 well plates (Nunc 460518) are coated with 35 μl of a buffered solution containing 1.5 μg/mL anti-MMP13 antibody MAB511 (R&D systems). The antibody is diluted in carbonate-bicarbonate coating buffer (1.59 g Na2CO3 (Sigma S-7795) and 2.93 g NaHCO3 (Sigma S-5761) in 1 L MilliQ water, adjusted to pH 9.6). After overnight incubation at 4° C., wells are washed twice with 100 μL PBST (80 g NaCl, 2 g KCl (Sigma), 11.5 g Na2HPO4.7H2O and 2 g KH2PO4 in 10 L milliQ water; pH 7.4+0.05% Tween-20 (Sigma)) and blocked with 100 μL/well blocking buffer (5% non fat dry milk in PBS). After overnight incubation at 4° C., wells are washed twice with 100 μL PBST. The PBST is removed and 35 μL of sample is transferred to the ELISA plates. After 4 hr incubation at RT, plates are washed twice with PBST and incubated for 1 hr at 37° C. with 35 μL/well 1.5 mM APMA solution (a 10 mM APMA stock solution is prepared one day before (35.18 mg APMA (Sigma A-9563) in 10 mL 0.1M NaOH (Merck 1.06469.1000) and stored at 4° C. Before use, the 10 mM APMA stock solution is diluted to 1.5 mM in 1×APMA buffer (10× APMA buffer: 500 mM Tris (Roche 708976), 50 mM CaCl2 (Sigma C-5080), […] ZnCl2 (Sigma Z-0173), 1.5 M NaCl (Calbiochem 567441), 0.5% Brij35 (Sigma 430 AG-6) and adjust to pH 7.0). After activation of MMP13 by APMA, plates are washed again two times with 100 μL PBST/well and 35 μL of substrate solution is added to each well. Substrate solution is prepared as follows: OmniMMP Fluorescent substrate (Biomol P-126) stock solution (2 mM in DMSO, stored at −20° C.) is diluted in 1× OmniMMP buffer (10× OmniMMP buffer: 500 mM Hepes (Sigma H4034), 100 mM CaCl2 (Sigma C5080), 0.5% Brij35 (Sigma 430 AG-6; adjusted to pH 7.0) to a final concentration of 0.01 mM. After an overnight incubation at 37° C., the active MMP13 in the sample has cleaved the substrate and released fluorescence. Readout is performed on the EnVision (Perkin Elmer) using 320 nm excitation/405 nm emission filters.
Human chondrosarcoma cell line SW1353 was acquired from ATCC and grown in DMEM supplemented with 10% heat-inactivated FBS and 1× penicillin/streptomycin (Invitrogen) in a humidified 5% CO2 incubator at 37° C. Aliquots of the cells were frozen and cryopreserved in liquid nitrogen. Starting from a cryopreserved aliquot, cells are further grown by sub-culturing at a 1/5-1/8 ratio twice a week by trypsinisation.
Starting from the compound master stocks (all at 10 mM concentration in 100% DMSO) a 3-fold serial dilution is made in 96-well plates in 100% DMSO. Then, plates are futher diluted 50-fold in M199 medium supplemented with 1% heat-inactivated FBS to obtain an intermediate work stock.
At day 1, SW1353 cells are seeded in 96-well plates (flat bottom, tissue culture treated, Greiner) at a density of 15000 cells/well in 120 μL growth medium. The next day, 15 μL compound out of the intermediate work stock is added. After an incubation period of 60 minutes, which allows the compounds to equilibrate and enter the cells, cells are stimulated with a mixture of IL-1β and OSM, added in a volume of 15 μL to obtain final concentrations of 1 ng/ml IL-1β and 25 ng/ml OSM. For that, stocks of IL-1 (10 μg/ml) and OSM (25 μg/ml) (both PeproTech) were diluted to 10 ng/ml and 250 ng/ml respectively, in M199 medium supplemented with 1% FBS. After incubation for 48 hr, the cell supernatant was harvested and an appropriate dilution was processed in the MMP13 ELISA as described above, delivering raw data (RFU: relative fluorescence units). […]
On the technique in general: ELISA stands for enzyme-linked immunosorbent assay.
For `CC(C)N1C[C@@H]2C[C@H]1CN2c1ccc(Nc2ncc(-c3coc(C(N)=O)c3)n3ccnc23)cc1` [Compound 4, 4-{8-[4-((1S,4S)-5-Isopropyl-2,5-diaza-bicyclo[2.2.1]hept-2-yl)-phenylamino]-imidazo[1,2-a]pyrazin-5-yl}-furan-2-carboxamide], the IC50 was > 1000 nM.
On to `CC(C)N1C[C@@H]2C[C@H]1CN2c1cccc(Nc2ncc(-c3coc(C(N)=O)c3)n3ccnc23)c1` [Compound 25, 4-(8-(3-((1S,4S)-5-isopropyl-2,5-diazabicyclo[2.2.1]heptan-2-yl)phenylamino)imidazo[1,2-a]pyrazin-5-yl)furan-2-carboxamide], for which the IC50 is > 1000 nM.
Consider `CC(C)N1C[C@@H]2C[C@H]1CN2c1cccc(Nc2ncc(-c3coc(C(N)=O)c3)n3ncnc23)c1` [Compound 24, 4-(8-(3-((1S,4S)-5-isopropyl-2,5-diazabicyclo[2.2.1]heptan-2-yl)phenylamino)-[1,2,4]triazolo[1,5-a]pyrazin-5-yl)furan-2-carboxamide], for which the IC50 is > 1000 nM.
For `CC(C)N1C[C@@H]2C[C@H]1CN2c1ccc(Nc2ncc(-c3cc(C(N)=O)n[nH]3)n3ncnc23)cc1` [Compound 5, 5-{8-(4-((1S,4S)-5-isopropyl-2,5-diazabicyclo[2.2.1]heptan-2-yl)phenyl-amino)-[1,2,4]triazolo[1,5-a]pyrazin-5-yl}-1H-pyrazole-3-carboxamide], the IC50 was > 1000 nM.
Under `CC(C)(C)N1C[C@@H]2C[C@H]1CN2c1ccc(Nc2ncc(-c3cc(C(N)=O)n[nH]3)n3ncnc23)cc1` [Compound 17, 5-{8-(4-((1S,4S)-5-tert-butyl-2,5-diazabicyclo[2.2.1]heptan-2-yl)phenyl-amino)-[1,2,4]triazolo[1,5-a]pyrazin-5-yl}-1H-pyrazole-3-carboxylic acid amide] stands 501 to 1000 nM.
On to `CC(C)N1C[C@@H]2C[C@H]1CN2c1ccc(Nc2ncc(-c3ccc4c(c3)CNC4=O)n3ncnc23)cn1` [Compound 18, 5-{8-(6-((1S,4S)-5-isopropyl-2,5-diazabicyclo[2.2.1]heptan-2-yl)pyridin-3-ylamino)-[1,2,4]triazolo[1,5-a]pyrazin-5-yl}-2,3-dihydro-isoindol-1-one], for which the IC50 is > 1000 nM.
For `CCOc1cc(-c2cnc(Nc3ccc(N4C[C@@H]5C[C@H]4CN5C(C)C)cc3)c3nccn23)ccn1` [Compound 22, 5-(2-ethoxypyridin-4-yl)-N-(4-((1S,4S)-5-isopropyl-2,5-diazabicyclo[2.2.1]heptan-2-yl)phenyl)imidazo[1,2-a]pyrazin-8-amine], the IC50 was > 1000 nM.
Take `CC(C)N1C[C@@H]2C[C@H]1CN2c1ccc(Nc2ncc(-c3ccc4c(c3)CNC4=O)n3ncnc23)cc1` [Compound 1, 5-{8-[4-((1S,4S)-5-Isopropyl-2,5-diaza-bicyclo[2.2.1]hept-2-yl)-phenylamino]-[1,2,4]triazolo[1,5-a]pyrazin-5-yl}-2,3-dihydro-isoindol-1-one]: the IC50 is > 1000 nM.
For the compound `CCOC(=O)c1cc(-c2cnc(Nc3ccc(N4C[C@@H]5C[C@H]4CN5C(C)C)cc3)c3ncnn23)[nH]n1` [Compound 21, Ethyl 5-(8-(4-((1S,4S)-5-isopropyl-2,5-diazabicyclo[2.2.1]heptan-2-yl)phenylamino)-[1,2,4]triazolo[1,5-a]pyrazin-5-yl)-1H-pyrazole-3-carboxylate], the IC50 is > 1000 nM.
In the case of `CC(C)N1CC2CCC(C1)N2c1ccc(Nc2ncc(-c3coc(C(N)=O)c3)n3ccnc23)cc1` [Compound 11, 4-{8-(4-(3-isopropyl-3,8-diazabicyclo[3.2.1]octan-8-yl)phenylamino)-imidazo[1,2-a]pyrazin-5-yl}-furan-2-carboxamide], the IC50 was > 1000 nM.
As to `CC(C)N1C[C@@H]2C[C@H]1CN2c1ccc(Nc2ncc(-c3noc(C(N)=O)n3)n3ncnc23)cc1` [Compound 23, 3-(8-(4-((1S,4S)-5-isopropyl-2,5-diazabicyclo[2.2.1]heptan-2-yl)phenylamino)-[1,2,4]triazolo[1,5-a]pyrazin-5-yl)-1,2,4-oxadiazole-5-carboxamide], the IC50 was > 1000 nM.
For the compound `CC(C)N1C2CCC1CN(c1ccc(Nc3ncc(-c4coc(C(N)=O)c4)n4ncnc34)cc1)C2` [Compound 12, 4-{8-(4-(8-isopropyl-3,8-diazabicyclo[3.2.1]octan-3-yl)phenylamino)[1,2,4]-triazolo[1,5-a]pyrazin-5-yl}-furan-2-carboxamide], the IC50 was > 1000 nM.
Under `CC(C)N1C[C@@H]2C[C@H]1CN2c1ccc(Nc2ncc(-c3cc[nH]c(=O)c3)n3ccnc23)cc1` [Compound 8, 4-{8-(4-((1S,4S)-5-isopropyl-2,5-diazabicyclo[2.2.1]heptan-2-yl)phenyl-amino)imidazo[1,2-a]pyrazin-5-yl}-1H-pyridin-2-one] stands 1 to 500 nM.
The result for `CC(C)(C)N1C[C@@H]2C[C@H]1CN2c1ccc(Nc2ncc(-c3ccc4c(c3)CNC4=O)n3ncnc23)cc1` [Compound 16, 5-{8-(4-((1S,4S)-5-tert-butyl-2,5-diazabicyclo[2.2.1]heptan-2-yl)phenylamino)-[1,2,4]triazolo-[1,5-a]pyrazin-5-yl}-2,3-dihydro-isoindol-1-one] reads > 1000 nM; that for `CC(C)N1C[C@@H]2C[C@H]1CN2c1ccc(Nc2ncc(-c3cc[nH]c(=O)c3)n3ncnc23)cc1` [Compound 20, 4-(8-(4-((1S,4S)-5-isopropyl-2,5-diazabicyclo[2.2.1]heptan-2-yl)phenylamino)-[1,2,4]triazolo[1,5-a]pyrazin-5-yl)pyridin-2(1H)-one], > 1000 nM; that for `CC(C)N1C[C@@H]2C[C@H]1CN2c1ccc(Nc2ncc(-c3cc(C(N)=O)n[nH]3)n3ncnc23)cn1` [Compound 15, 5-{8-(6-((1S,4S)-5-isopropyl-2,5-diazabicyclo[2.2.1]heptan-2-yl)pyridin-3-ylamino)-[1,2,4]triazolo[1,5-a]pyrazin-5-yl}-1H-pyrazole-3-carboxylic acid amide], > 1000 nM.
For the compound `CC(C)N1CC2CCC1CN2c1ccc(Nc2ncc(-c3coc(C(N)=O)c3)n3ncnc23)cc1` (centres unmarked) [Compound 9, 4-{8-(4-(5-isopropyl-2,5-diazabicyclo[2.2.2]octan-2-yl)phenylamino)[1,2,4]-triazolo[1,5-a]pyrazin-5-yl}-furan-2-carboxamide], the IC50 is > 1000 nM.
Compound `CC(C)(C)N1C[C@@H]2C[C@H]1CN2c1ccc(Nc2ncc(-c3coc(C(N)=O)c3)n3ncnc23)cc1` [Compound 3, 4-{8-[4-((1S,4S)-5-tert-Butyl-2,5-diaza-bicyclo[2.2.1]hept-2-yl)-phenylamino]-[1,2,4]triazolo[1,5-a]pyrazin-5-yl}-furan-2-carboxamide] gave an IC50 of 1 to 500 nM.
Under `CC(C)(C)N1C[C@@H]2C[C@H]1CN2c1ccc(Nc2ncc(-c3coc(C(N)=O)c3)n3ccnc23)cc1` [Compound 6] stands > 1000 nM; under `CCOc1cc(-c2cnc(Nc3ccc(N4C[C@@H]5C[C@H]4CN5C(C)C)cc3)c3ncnn23)ccn1` [Compound 19, 5-(2-ethoxypyridin-4-yl)-N-(4-((1S,4S)-5-isopropyl-2,5-diazabicyclo[2.2.1]heptan-2-yl)phenyl)-[1,2,4]triazolo[1,5-a]pyrazin-8-amine], > 1000 nM.
